Tested on: Dsg2^mut/mut mice
Assay: Cytokine arrays, cytokine expression in hearts of Dsg2^mut/mut mice treated with Bay 11-7082
Format: in vivo
Conditions: cytokine expression level, mouse heart
Text: Quantitative data (mean±SEM; n=5) for expression of selected cytokines in hearts of vehicle-treated wildtype (WT) mice, Dsg2^mut/mut mice and Dsg2^mut/mut mice treated with Bay 11-7082. * P<0.05 compared to WT; †P<0.05 for treated vs. untreated Dsg2^mut/mut mice.
To characterize production of chemical mediators of the immune response in ACM, we used arrays to measure 111 different cytokines in the hearts of Dsg2^mut/mut mice and compared the amounts to those measured in the hearts of WT mice and Dsg2^mut/mut mice treated with Bay 11-7082. We observed substantial expression of multiple cytokines in the hearts of Dsg2^mut/mut mice. […] Powerful inflammatory mediators were expressed in Dsg2^mut/mut hearts including IL-1β (up by ~13-fold compared to WT hearts), IFNγ (~5-fold), IL-12 (~6-fold) and TNFα (~2-fold). […] Finally, there were increases in some molecules that fulfill anti-inflammatory roles such as IL-1Ra (up by ~4-fold).

Q: `Cc1ccc(S(=O)(=O)/C=C/C#N)cc1` [Bay11-7082] was tested. Which “IL-1β (IL-1F2), Dsg2^mut/mut (Bay11-7082) vs Dsg2^mut/mut” value did it give?
A: Its value is <1.

Q: What about the “IL-1β (IL-1F2), Dsg2^mut/mut (Bay11-7082) vs WT” value of the same molecule?
A: Its value is 6-10.

Q: What about the “IL-2, Dsg2^mut/mut (Bay11-7082) vs Dsg2^mut/mut” value of the same molecule?
A: Its value is <1.

Q: And the “IL-2, Dsg2^mut/mut (Bay11-7082) vs WT” value?
A: Its value is <1.

Q: What about the “IL-3, Dsg2^mut/mut (Bay11-7082) vs Dsg2^mut/mut” value of the same molecule?
A: Its value is <1.

Q: And the “IL-3, Dsg2^mut/mut (Bay11-7082) vs WT” value?
A: The value was <1.

Q: What about the “IL-4, Dsg2^mut/mut (Bay11-7082) vs Dsg2^mut/mut” value of the same molecule?
A: The value was <1.

Q: And the “IL-4, Dsg2^mut/mut (Bay11-7082) vs WT” value?
A: The value was <1.

Q: What about the “IL-5, Dsg2^mut/mut (Bay11-7082) vs Dsg2^mut/mut” value of the same molecule?
A: The value was <1.

Q: What about the “IL-5, Dsg2^mut/mut (Bay11-7082) vs WT” value of the same molecule?
A: The value was <1.

Q: What about the “IL-6, Dsg2^mut/mut (Bay11-7082) vs Dsg2^mut/mut” value of the same molecule?
A: The value was <1.

Q: What about the “IL-6, Dsg2^mut/mut (Bay11-7082) vs WT” value of the same molecule?
A: The value was <1.

Q: What about the “IL-7, Dsg2^mut/mut (Bay11-7082) vs Dsg2^mut/mut” value of the same molecule?
A: Its value is <1.

Q: And the “IL-7, Dsg2^mut/mut (Bay11-7082) vs WT” value?
A: Its value is <1.

Q: And the “IL-10, Dsg2^mut/mut (Bay11-7082) vs Dsg2^mut/mut” value?
A: The value was <1.

Q: What about the “IL-10, Dsg2^mut/mut (Bay11-7082) vs WT” value of the same molecule?
A: The value was <1.

Q: What about the “IL-11, Dsg2^mut/mut (Bay11-7082) vs Dsg2^mut/mut” value of the same molecule?
A: The value was <1.

Q: And the “IL-11, Dsg2^mut/mut (Bay11-7082) vs WT” value?
A: Its value is <1.

Q: What about the “IL-12 p40, Dsg2^mut/mut (Bay11-7082) vs Dsg2^mut/mut” value of the same molecule?
A: Its value is <1.

Q: And the “IL-12 p40, Dsg2^mut/mut (Bay11-7082) vs WT” value?
A: Its value is 1-2.

Q: And the “IL-13, Dsg2^mut/mut (Bay11-7082) vs Dsg2^mut/mut” value?
A: Its value is <1.

Q: And the “IL-13, Dsg2^mut/mut (Bay11-7082) vs WT” value?
A: Its value is 1-2.

Q: And the “IL-15, Dsg2^mut/mut (Bay11-7082) vs Dsg2^mut/mut” value?
A: Its value is <1.

Q: What about the “IL-15, Dsg2^mut/mut (Bay11-7082) vs WT” value of the same molecule?
A: Its value is 2-4.

Q: And the “IL-17a, Dsg2^mut/mut (Bay11-7082) vs Dsg2^mut/mut” value?
A: Its value is <1.

Q: And the “IL-17a, Dsg2^mut/mut (Bay11-7082) vs WT” value?
A: Its value is <1.

Q: What about the “IL-22, Dsg2^mut/mut (Bay11-7082) vs Dsg2^mut/mut” value of the same molecule?
A: Its value is <1.

Q: And the “IL-22, Dsg2^mut/mut (Bay11-7082) vs WT” value?
A: Its value is <1.

Q: And the “IL-23, Dsg2^mut/mut (Bay11-7082) vs Dsg2^mut/mut” value?
A: Its value is <1.

Q: And the “IL-23, Dsg2^mut/mut (Bay11-7082) vs WT” value?
A: Its value is <1.

Q: What about the “IL-27 p28, Dsg2^mut/mut (Bay11-7082) vs Dsg2^mut/mut” value of the same molecule?
A: The value was <1.

Q: What about the “IL-27 p28, Dsg2^mut/mut (Bay11-7082) vs WT” value of the same molecule?
A: Its value is <1.

Q: And the “IL-28A/B, Dsg2^mut/mut (Bay11-7082) vs Dsg2^mut/mut” value?
A: The value was <1.

Q: And the “IL-28A/B, Dsg2^mut/mut (Bay11-7082) vs WT” value?
A: Its value is 1-2.

Q: And the “IL-33, Dsg2^mut/mut (Bay11-7082) vs Dsg2^mut/mut” value?
A: Its value is <1.

Q: And the “IL-33, Dsg2^mut/mut (Bay11-7082) vs WT” value?
A: The value was 2-4.

Q: What about the “IP-10 (CXL10/CRG-2), Dsg2^mut/mut (Bay11-7082) vs Dsg2^mut/mut” value of the same molecule?
A: Its value is <1.

Q: What about the “IP-10 (CXL10/CRG-2), Dsg2^mut/mut (Bay11-7082) vs WT” value of the same molecule?
A: Its value is <1.

Q: And the “KC (CXCL1), Dsg2^mut/mut (Bay11-7082) vs Dsg2^mut/mut” value?
A: The value was <1.

Q: And the “KC (CXCL1), Dsg2^mut/mut (Bay11-7082) vs WT” value?
A: Its value is <1.

Q: And the “LDL R, Dsg2^mut/mut (Bay11-7082) vs Dsg2^mut/mut” value?
A: The value was 1-2.

Q: What about the “LDL R, Dsg2^mut/mut (Bay11-7082) vs WT” value of the same molecule?
A: Its value is 1-2.

Q: And the “LIF, Dsg2^mut/mut (Bay11-7082) vs Dsg2^mut/mut” value?
A: The value was <1.

Q: And the “LIF, Dsg2^mut/mut (Bay11-7082) vs WT” value?
A: The value was <1.

Q: And the “LIX, Dsg2^mut/mut (Bay11-7082) vs Dsg2^mut/mut” value?
A: Its value is <1.

Q: And the “LIX, Dsg2^mut/mut (Bay11-7082) vs WT” value?
A: Its value is >10.

Q: And the “Leptin, Dsg2^mut/mut (Bay11-7082) vs Dsg2^mut/mut” value?
A: The value was <1.

Q: And the “Leptin, Dsg2^mut/mut (Bay11-7082) vs WT” value?
A: Its value is 1-2.

Q: And the “Lipocalin-2/NGAL, Dsg2^mut/mut (Bay11-7082) vs Dsg2^mut/mut” value?
A: Its value is <1.

Q: And the “Lipocalin-2/NGAL, Dsg2^mut/mut (Bay11-7082) vs WT” value?
A: The value was <1.

Q: What about the “M-CSF, Dsg2^mut/mut (Bay11-7082) vs Dsg2^mut/mut” value of the same molecule?
A: The value was 1-2.

Q: And the “M-CSF, Dsg2^mut/mut (Bay11-7082) vs WT” value?
A: Its value is >20.

Q: And the “MCP-5 (CCL12), Dsg2^mut/mut (Bay11-7082) vs Dsg2^mut/mut” value?
A: The value was <1.

Q: What about the “MCP-5 (CCL12), Dsg2^mut/mut (Bay11-7082) vs WT” value of the same molecule?
A: Its value is <1.

Q: What about the “MIP-2 (CXCL2), Dsg2^mut/mut (Bay11-7082) vs Dsg2^mut/mut” value of the same molecule?
A: The value was <1.

Q: What about the “MIP-2 (CXCL2), Dsg2^mut/mut (Bay11-7082) vs WT” value of the same molecule?
A: The value was <1.

Reference: patent US12708665B2, “Anti-IL-1β antibody therapy in arrhythmogenic cardiomyopathy (ACM)” (Beth Israel Deaconess Medical Center, Inc., priority 2019, dated 2026)
